Assays:
[1] = Whole blood stability, human; format: in vitro ADME
Source text: (§1) The results of the assay on stability in blood and IC50 values for pancreatic cancer cell line KP4 are given below in Table 24.

[2] = test system: KP4; assay: Cell viability assay (CellTiter Glo), pancreatic ductal adenocarcinoma KP4; format: cell-based, human; details: Homo sapiens, KP-4, 96 h, pancreatic cancer cell line KP4, 96 hours, CellTiter Glo; read-out: IC50 μM KP4
Description: (§2) Cell viability assay was performed to assess the potency of the compounds in human cancer cell lines KP4 (pancreatic ductal adenocarcinoma), MiaPaCa-2 (pancreatic carcinoma), AsPC-1 (pancreatic adenocarcinoma, ascites), 143B (osteosarcoma), and SJSA-1 (osteosarcoma). Selected compounds were also assayed in a human breast epithelial cell line MCF-10A, a nontumorigenic cell line as a control to assess differential activity. Cells at a density of 500-5,000 cells/well were seeded in 96-well plates and incubated at 37° C. overnight. A series of 9 different concentrations of compound stocks (500×) were created by 3-fold serial dilution in DMSO. These compounds were further diluted in culture media and then added to cells so that the final DMSO concentration was equal to 0.25% or less. After 96 hours of incubation, 50 μL of CellTiter Glo reagent (Promega) was added to each well and luminescence was measured after 10 minutes using EnVision (PerkinElmer). Compounds titrated from top concentration of up to 30 μM. The select compounds were tested initially from 30 μM as the top concentration in duplicates (range of 4.6 nM-30 μM). […] Luminescence from cells treated with DMSO alone was set as Max and % of inhibition was calculated as follows: Inhibition %=(Max-Sample value)/Max*100. Data was analyzed using XL-fit software (ID Business Solutions Ltd.). IC50, relative IC50, or % of top inhibition was calculated.
as §2, with “in” for “in human”, “line” for “lines”, “adenocarcinoma).” for “adenocarcinoma), MiaPaCa-2 (pancreatic carcinoma), AsPC-1 (pancreatic adenocarcinoma, ascites), 143B (osteosarcoma), and SJSA-1 (osteosarcoma). Selected compounds were also assayed in a human breast epithelial cell line MCF-10A, a nontumorigenic cell line as a control to assess differential activity.”, “1,000-10,000” for “500-5,000”, “All” for “Compounds titrated from top concentration of up to 30 μM. The select”
as §1

[3] = Whole blood stability, mouse; format: in vitro ADME
Source text: as §1

| Whole Blood Stability % Remaining at 37° C. Human ([1]; 0 min) [%] | Whole Blood Stability % Remaining at 37° C. Human ([1]; 30 min) [%] | Whole Blood Stability % Remaining at 37° C. Human ([1]; 60 min) [%] | IC50 [2] [µM] | Whole Blood Stability % Remaining at 37° C. Mouse ([3]; 0 min) [%] | Whole Blood Stability % Remaining at 37° C. Mouse ([3]; 30 min) [%] | Whole Blood Stability % Remaining at 37° C. Mouse ([3]; 60 min) [%] | SMILES |
| --- | --- | --- | --- | --- | --- | --- | --- |
| 100.0 | 1.9 | 0.9 | > 1 | 100.0 | 0.0 | 0.0 | COC(=O)[C@H]1Cc2c([nH]c3ccccc23)[C@@H](c2ccc(C(=O)N3CCC(O)CC3)cc2)N1C(=O)CCl [Compound 32a] |
| 100.0 | 104.7 | 103.8 | > 1 | 100.0 | 78.9 | 69.3 | COC(=O)[C@H]1Cc2c([nH]c3ccccc23)[C@H](c2ccc(C(=O)OC(C)(C)C)cc2)N1C(=O)C(C)Cl (stereo partly drawn) [Compound 33] |
| 100.0 | 104.9 | 113.4 | > 1 | 100.0 | 75.6 | 80.6 | COC(=O)[C@H]1CC2c3ccccc3NC2[C@H](c2ccc(C(=O)OC(C)(C)C)cc2)N1C(=O)C(F)(F)Cl (stereo partly drawn) [Compound 34] |
| 100.0 | 39.3 | 20.5 | 0.01 to 0.1 | 100.0 | 32.9 | 14.8 | COC(=O)[C@H]1Cc2c([nH]c3ccccc23)[C@H](c2ccc(S(=O)(=O)N3CCC(O)CC3)cc2)N1C(=O)CCl [Compound 35] |
| 100.0 | 37.8 | 17.9 | 0.01 to 0.1 | 100.0 | 25.4 | 9.8 | COC(=O)[C@H]1Cc2c([nH]c3ccccc23)[C@H](c2ccc(S(=O)(=O)N3CC(O)C3)cc2)N1C(=O)CCl [Compound 37] |
| 100.0 | 46.2 | 28.5 | 0.5 to 1 | 100.0 | 72.9 | 62.0 | CN(C)C(=O)c1ccc([C@H]2c3[nH]c4ccccc4c3C[C@H](C(=O)N(C)C)N2C(=O)CCl)cc1 [Compound 38] |
| 100.0 | 64.5 | 50.4 | 0.1 to 0.5 | 100.0 | 73.2 | 60.4 | CC(C)N(C(=O)[C@H]1Cc2c([nH]c3ccccc23)[C@H](c2ccc(C(=O)N(C)C)cc2)N1C(=O)CCl)C(C)C [Compound 39] |
| 100.0 | 82.4 | 100.0 | 0.01 to 0.1 | 100.0 | 0.0 | 0.0 | COC(=O)C1CCC([C@H]2c3[nH]c4ccccc4c3C[C@H](C(=O)N(C)C)N2C(=O)CCl)CC1 (stereo partly drawn) [Compound 41] |
| 100.0 | 46.2 | 28.5 | > 1 | 100.0 | 72.9 | 62.0 | CN(C)C(=O)[C@H]1Cc2c([nH]c3ccccc23)[C@H](C2CCN(C(=O)OC(C)(C)C)CC2)N1C(=O)CCl [Compound 42] |
| 100.0 | 71.4 | 56.4 | > 1 | 100.0 | 91.2 | 81.5 | CN(C)C(=O)[C@H]1Cc2c([nH]c3ccccc23)[C@H](c2ccc(C(=O)N3CCC(O)CC3)cc2)N1C(=O)CCl [Compound 45] |
| 100.0 | 43.0 | 13.7 | > 1 | 100.0 | 82.5 | 52.5 | CN(C)C(=O)[C@H]1Cc2c([nH]c3ccccc23)[C@H](c2ccc(S(=O)(=O)N3CCC(O)CC3)cc2)N1C(=O)CCl [Compound 49] |
| 100.0 | 51.8 | 59.4 | 0.01 to 0.1 | 100.0 | 79.9 | 52.0 | COCCN(C(=O)c1ccc([C@H]2c3[nH]c4ccccc4c3C[C@H](C(=O)N(C)C)N2C(=O)CCl)cc1)C(C)(C)C [Compound 52] |
| 100.0 | 44.9 | 40.4 | 0.01 to 0.1 | 100.0 | 42.9 | 13.8 | CN(C)C(=O)[C@H]1Cc2c([nH]c3ccccc23)[C@H](c2ccc(C(=O)N(CCC(=O)OC(C)(C)C)C(C)(C)C)cc2)N1C(=O)CCl [Compound 54] |
| 100.0 | 50.6 | 20.6 | 0.1 to 0.5 | 100.0 | 51.4 | 24.6 | CN(C)C(=O)c1ccc([C@H]2c3sc4ccccc4c3C[C@H](C(=O)N(C)C)N2C(=O)CCl)cc1 [Compound 55] |
| 100.0 | 42.6 | 16.7 | 0.5 to 1 | 100.0 | 82.3 | 60.4 | CN(C)C(=O)c1ccc([C@@H]2c3sc4ccccc4c3C[C@H](C(=O)N(C)C)N2C(=O)CCl)cc1 [Compound 55a] |
| 100.0 | 59.3 | 60.7 | 0.01 to 0.1 | 100.0 | 84.1 | 38.9 | CN(C)C(=O)[C@H]1Cc2c([nH]c3ccccc23)[C@H](c2ccc(NC(=O)OC(C)(C)C)cc2)N1C(=O)CCl [Compound 56] |
| 100.0 | 64.4 | 40.5 | > 1 | 100.0 | 89.9 | 67.0 | CN(C)C(=O)c1ccc([C@H]2c3[nH]c4ccccc4c3C[C@H](C(N)=O)N2C(=O)CCl)cc1 [Compound 58] |
| 100.0 | 48.9 | 51.5 | 0.1 to 0.5 | 100.0 | 97.9 | 65.6 | CN(C)C(=O)[C@H]1Cc2c([nH]c3ccccc23)[C@H](c2ccc(S(C)(=O)=O)cc2)N1C(=O)CCl [Compound 59] |

— patent US11098040B2, “Compounds and methods of use” (Ferro Therapeutics, Inc., priority 2018, dated 2021)
